The source of these data is patent US12084445B2, “Broad-spectrum carbapenems” (VenatoRx Pharmaceuticals, Inc., priority 2018, dated 2024).

Each structure is given as a SMILES string.

Format in all cases: cell-based
Test [1] has as its system S. aureus ATCC 33591 (methicillin-resistant). Nature of the test: broth microdilution MIC assay, S. aureus ATCC 33591. To be noted: Staphylococcus aureus, ATCC 33591 / MRSA; Table 3; S. aureus 33591 (MRSA); read-out: S. aureus 33591 (MRSA) MIC. On the procedure: (§1) To determine the ability of test compounds to potentiate the inhibition of the growth of bacterial strains, classic cell-based broth microdilution MIC assays were employed. MIC assays are performed according to CLSI methods except where otherwise noted (CLSI, 2011 and CLSI, 2009). The reference strains S. aureus ATCC 29213 (methicillin sensitive), S. aureus ATCC 33591 (methicillin-resistant), E. coli ATCC 25922 (wild-type/QC strain), P. aeruginosa ATCC 27853 (wild-type/QC strain), and the clinical isolate P. aeruginosa PA 8 were used to determine the ability of the exemplary carbapenem compounds to inhibit bacterial growth. An expanded panel of methicillin resistance S. aureus (MRSA) and Pseudomonas was also used to determine the ability of exemplary carbapenem compounds to inhibit bacterial growth across a broader representation of those species. To determine activity in MRSA and in addition to S. aureus ATCC 33591, S. aureus USA 300, USA 400 and USA 600, some of the most common clones found to cause human infection, were also used. To further gauge the impact on the carbapenem compounds due to various resistance mechanisms in Pseudomonas, the following strains were included: P. aeruginosa 35151 (hyper-permeable strain), P. aeruginosa AmexAB-OprM (an efflux pump knockout), and P. aeruginosa PA 3 (a clinical isolate of reduced carbapenem susceptibility). Briefly, cryo-preserved bacterial cultures of clinical strains are streaked for isolation on appropriate agar medium, in this case Mueller Hinton II agar. Following incubation to allow formation of colonies, these plates are sealed with parafilm and stored refrigerated for up to two weeks. For preparation of assay inocula and to ensure low variability, at least 5 colonies are picked from the agar plates with an inoculating loop and aseptically transferred to a culture tube containing 3 mL of Mueller-Hinton Broth (supplemented with divalent cations to required levels based on Manufacturers' specification). The broth culture is grown for 3-5 hours at 37° C. with shaking at 200 rpm. Meanwhile, 2-fold serial dilutions of test compounds are conducted in a 96 well plate with a final volume of 75 μL per well at 2-fold the final desired concentration. After the dilution plates are set up the growing cultures are then diluted in a cuvette containing MH II broth and the optical density is measured at 600 nm. Inocula are diluted such that 75 μL of this culture in Mueller-Hinton Broth results in a starting bacterial concentration of 5×10^5 CFU/mL when added to the dilution plates. The plates are incubated 16-20 hours at 37° C. The MIC is read visually as the lowest concentration well with no bacterial growth.
(§2) Representative results are shown in Tables 3, 4, and 5 where A represents an MIC>32 μg/mL, B represents an MIC between 8 and 32 μg/mL inclusive, C represents an MIC between 1 and 4 μg/mL inclusive, and D represents an MIC of <1 μg/mL. NT=Not Tested.
Background: Broth dilution looks for growth in wells or tubes with falling amounts of substance.

The subject of test [2] is E. coli ATCC 25922 (wild-type/QC strain). As to the kind of experiment: broth microdilution MIC assay, E. coli ATCC 25922. To be noted: Escherichia coli, ATCC25922; Table 3; E. coli 25922; read-out: E. coli 25922 MIC. On the procedure: as §1, §2
The subject of test [3] is P. aeruginosa ATCC 27853 (wild-type/QC strain). Nature of the test: broth microdilution MIC assay, P. aeruginosa ATCC 27853. The note with it: Pseudomonas aeruginosa, ATCC27853; Table 3; P. aeruginosa 27853; read-out: P. aeruginosa 27853 MIC. As to the method: as §1, §2
The test system of test [4] is clinical isolate P. aeruginosa PA 8. Nature of the test: broth microdilution MIC assay, P. aeruginosa PA 8. The note with it: Pseudomonas aeruginosa; Table 3; P. aeruginosa PA8. As to the method: as §1, §2

With `C[C@@H](O)[C@H]1C(=O)N2C(C(=O)O)=C(S[C@@H]3CCN(C4CCC(NCCCB(O)O)CC4)C3)[C@H](C)[C@H]12` (stereo partly drawn) [Example 3, (4R,5S,6S)-3-(((R)-1-(4-((3-boronopropyl)amino)cyclohexyl)pyrrolidin-3-yl)thio)-6-((R)-1-hydroxyethyl)-4-methyl-7-oxo-1-azabicyclo[3.2.0]hept-2-ene-2-carboxylic acid], the minimal inhibitory concentration (MIC) (in general, the lowest concentration that inhibits growth of the organism) was 8 to 32 µg/mL in test [1], less than 1 µg/mL in test [2], 8 to 32 µg/mL in test [3] and 8 to 32 µg/mL in test [4].
On to `C[C@@H](O)[C@H]1C(=O)N2C(C(=O)O)=C(S[C@@H]3CCN(C[C@H]4CC[C@H](CN)CC4)C3)[C@H](C)[C@H]12` [Example 17, (4R,5S,6S)-3-(((R)-1-(((1r,4R)-4-(aminomethyl)cyclohexyl)methyl)pyrrolidin-3-yl)thio)-6-((R)-1-hydroxyethyl)-4-methyl-7-oxo-1-azabicyclo[3.2.0]hept-2-ene-2-carboxylic acid], for which the MIC was 8 to 32 µg/mL in test [1], less than 1 µg/mL in test [2], 1 to 4 µg/mL in test [3] and 1 to 4 µg/mL in test [4].
Regarding `CNC[C@H]1CC[C@H](CN2CC[C@@H](SC3=C(C(=O)O)N4C(=O)[C@H]([C@@H](C)O)[C@H]4[C@H]3C)C2)CC1` [Example 18, (4R,5S,6S)-6-((R)-1-hydroxyethyl)-4-methyl-3-(((R)-1-(((1r,4R)-4-((methylamino)methyl)cyclohexyl)methyl)pyrrolidin-3-yl)thio)-7-oxo-1-azabicyclo[3.2.0]hept-2-ene-2-carboxylic acid], the MIC in test [1] was 8 to 32 µg/mL; in test [2], less than 1 µg/mL; in test [3] it was 1 to 4 µg/mL; in test [4] it was 1 to 4 µg/mL.
As to `C[C@@H](O)[C@H]1C(=O)N2C(C(=O)O)=C(S[C@@H]3CCN(CCN4CCNCC4)C3)[C@H](C)[C@H]12` [Example 20, (4R,5S,6S)-6-((R)-1-hydroxyethyl)-4-methyl-7-oxo-3-(((R)-1-(2-(piperazin-1-yl)ethyl)pyrrolidin-3-yl)thio)-1-azabicyclo[3.2.0]hept-2-ene-2-carboxylic acid], the MIC in test [1] was 8 to 32 µg/mL; in test [2], less than 1 µg/mL; in test [3] it was 1 to 4 µg/mL; in test [4], 1 to 4 µg/mL.
In the case of `CN[C@H]1CC[C@H](CN2CC[C@@H](SC3=C(C(=O)O)N4C(=O)[C@H]([C@@H](C)O)[C@H]4[C@H]3C)C2)CC1` [Example 21, (4R,5S,6S)-6-((R)-1-hydroxyethyl)-4-methyl-3-(((R)-1-(((1r,4R)-4-(methylamino)cyclohexyl)methyl)pyrrolidin-3-yl)thio)-7-oxo-1-azabicyclo[3.2.0]hept-2-ene-2-carboxylic acid], the minimum inhibitory concentration (MIC) in test [1] is 8 to 32 µg/mL; in test [2], less than 1 µg/mL; in test [3], 1 to 4 µg/mL; in test [4], 1 to 4 µg/mL.
`C[C@@H](O)[C@H]1C(=O)N2C(C(=O)O)=C(S[C@@H]3CCN([C@H]4CC[C@@H](N)CC4)C3)[C@H](C)[C@H]12` [Example 23, (4R,5S,6S)-3-(((R)-1-((1r,4R)-4-aminocyclohexyl)pyrrolidin-3-yl)thio)-6-((R)-1-hydroxyethyl)-4-methyl-7-oxo-1-azabicyclo[3.2.0]hept-2-ene-2-carboxylic acid]: the minimum inhibitory concentration (MIC) in test [1] was 8 to 32 µg/mL; in test [2], less than 1 µg/mL; in test [3] it was 1 to 4 µg/mL; in test [4] it was 1 to 4 µg/mL.
For `CC(C1CCNCC1)N1CC[C@@H](SC2=C(C(=O)O)N3C(=O)[C@H]([C@@H](C)O)[C@H]3[C@H]2C)C1` (stereo partly drawn) [Example 25, (4R,5S,6S)-6-((R)-1-hydroxyethyl)-4-methyl-7-oxo-3-(((3R)-1-(1-(piperidin-4-yl)ethyl)pyrrolidin-3-yl)thio)-1-azabicyclo[3.2.0]hept-2-ene-2-carboxylic acid], the MIC in test [1] is 8 to 32 µg/mL; in test [2], less than 1 µg/mL; in test [3] it was 8 to 32 µg/mL; in test [4] it was 1 to 4 µg/mL.
With `C[C@@H](O)[C@H]1C(=O)N2C(C(=O)O)=C(S[C@@H]3CCN(CC4CCN(CCN)CC4)C3)[C@H](C)[C@H]12` [Example 26, (4R,5S,6S)-3-(((R)-1-((1-(2-aminoethyl)piperidin-4-yl)methyl)pyrrolidin-3-yl)thio)-6-((R)-1-hydroxyethyl)-4-methyl-7-oxo-1-azabicyclo[3.2.0]hept-2-ene-2-carboxylic acid], the minimal inhibitory concentration (MIC) was greater than 32 µg/mL in test [1], less than 1 µg/mL in test [2], 1 to 4 µg/mL in test [3] and 1 to 4 µg/mL in test [4].
Consider `C[C@@H](O)[C@H]1C(=O)N2C(C(=O)O)=C(S[C@@H]3CCN(C4CCN(CCN)CC4)C3)[C@H](C)[C@H]12` [Example 27, (4R,5S,6S)-3-(((R)-1-(1-(2-aminoethyl)piperidin-4-yl)pyrrolidin-3-yl)thio)-6-((R)-1-hydroxyethyl)-4-methyl-7-oxo-1-azabicyclo[3.2.0]hept-2-ene-2-carboxylic acid], for which the minimal inhibitory concentration (MIC) in test [1] was 8 to 32 µg/mL; in test [2] it was less than 1 µg/mL; in test [3] it was 1 to 4 µg/mL; in test [4] it was 1 to 4 µg/mL.
On to `CC1CC(CN2CC[C@@H](SC3=C(C(=O)O)N4C(=O)[C@H]([C@@H](C)O)[C@H]4[C@H]3C)C2)CCN1` (stereo partly drawn) [Example 28, (4R,5S,6S)-6-((R)-1-hydroxyethyl)-4-methyl-3-(((3R)-1-((2-methylpiperidin-4-yl)methyl)pyrrolidin-3-yl)thio)-7-oxo-1-azabicyclo[3.2.0]hept-2-ene-2-carboxylic acid], for which the minimal inhibitory concentration (MIC) in test [1] was 8 to 32 µg/mL; in test [2] it was less than 1 µg/mL; in test [3] it was 8 to 32 µg/mL; in test [4], 1 to 4 µg/mL.
For the compound `CNCc1ccc(CN2CC[C@@H](SC3=C(C(=O)O)N4C(=O)[C@H]([C@@H](C)O)[C@H]4[C@H]3C)C2)cn1` [Example 29, (4R,5S,6S)-6-((R)-1-hydroxyethyl)-4-methyl-3-(((R)-1-((6-((methylamino)methyl)pyridin-3-yl)methyl)pyrrolidin-3-yl)thio)-7-oxo-1-azabicyclo[3.2.0]hept-2-ene-2-carboxylic acid], the MIC in test [1] was 8 to 32 µg/mL; in test [2], less than 1 µg/mL; in test [3], 8 to 32 µg/mL; in test [4] it was 1 to 4 µg/mL.
`C[C@@H](O)[C@H]1C(=O)N2C(C(=O)O)=C(S[C@@H]3CCN(CC4CCNC(CN)C4)C3)[C@H](C)[C@H]12` (stereo partly drawn) [Example 30, (4R,5S,6S)-3-(((3R)-1-((2-(aminomethyl)piperidin-4-yl)methyl)pyrrolidin-3-yl)thio)-6-((R)-1-hydroxyethyl)-4-methyl-7-oxo-1-azabicyclo[3.2.0]hept-2-ene-2-carboxylic acid]: the MIC in test [1] is 8 to 32 µg/mL; in test [2], less than 1 µg/mL; in test [3], 8 to 32 µg/mL; in test [4], 1 to 4 µg/mL.
With `C[C@@H](O)[C@H]1C(=O)N2C(C(=O)O)=C(S[C@@H]3CCN(Cc4ccc(CN)c(CN)c4)C3)[C@H](C)[C@H]12` [Example 31, (4R,5S,6S)-3-(((R)-1-(3,4-bis(aminomethyl)benzyl)pyrrolidin-3-yl)thio)-6-((R)-1-hydroxyethyl)-4-methyl-7-oxo-1-azabicyclo[3.2.0]hept-2-ene-2-carboxylic acid], the minimum inhibitory concentration (MIC) in test [1] was 1 to 4 µg/mL; in test [2], less than 1 µg/mL; in test [3], 8 to 32 µg/mL; in test [4] it was 8 to 32 µg/mL.
